Test results published in BindingDB's records for doi:10.1016/s0960-894x(02)00831-4 (Currently Naeja Pharmaceutical, 2002).

Biological target: Cathepsin S (Homo sapiens, UniProt P25774)
Assay: Inhibition of recombinant human cathepsin S

Chain of Cathepsin S (P25774 whole entry): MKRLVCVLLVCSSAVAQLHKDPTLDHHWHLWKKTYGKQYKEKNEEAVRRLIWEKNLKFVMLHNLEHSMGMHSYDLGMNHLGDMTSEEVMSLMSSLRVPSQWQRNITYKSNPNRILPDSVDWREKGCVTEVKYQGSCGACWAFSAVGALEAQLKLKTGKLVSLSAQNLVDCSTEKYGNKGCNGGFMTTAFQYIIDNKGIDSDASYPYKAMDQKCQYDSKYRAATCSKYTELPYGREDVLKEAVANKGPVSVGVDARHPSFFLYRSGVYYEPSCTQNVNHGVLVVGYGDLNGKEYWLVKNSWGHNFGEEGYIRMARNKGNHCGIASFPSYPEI

IC50: < 0.1 nM
SMILES: O=C(N[C@@H](Cc1ccccc1)C(=O)N[C@@H]1C(=O)N[C@@H]1Oc1ccccc1)OCc1ccccc1 [[(S)-1-((3S,4R)-2-Oxo-4-phenoxy-azetidin-3-ylcarbamoyl)-2-phenyl-ethyl]-carbamic acid benzyl ester]
